According to PubChem BioAssay AID1259407 (Chemical Carcinogenesis Research Information System (CCRIS), 2018):
The source made the active and inactive calls. No rule for the calls is given here.

System: CCRIS mutagenicity, Ames/micronucleus/aberration tests
Assay: CCRIS mutagenicity studies
[1] = Test System: AMES SALMONELLA TYPHIMURIUM, Strain/Indicator: TA98, Metabolic Activation: NONE, Method: PREINCUBATION
[2] = Test System: AMES SALMONELLA TYPHIMURIUM, Strain/Indicator: TA100, Metabolic Activation: NONE, Method: PREINCUBATION

Measured: mutagenic call

CC(C)CO
inactive: Test System: AMES SALMONELLA TYPHIMURIUM, Strain/Indicator: TA97, Metabolic Activation: HAMSTER, LIVER, S-9, AROCLOR 1254 (10 OR 30%), Method: PREINCUBATION inactive; negative | Test System: AMES SALMONELLA TYPHIMURIUM, Strain/Indicator: TA97, Metabolic Activation: NONE, Method: PREINCUBATION inactive; negative | Test System: AMES SALMONELLA TYPHIMURIUM, Strain/Indicator: TA97, Metabolic Activation: RAT, LIVER, S-9, AROCLOR 1254 (10 OR 30%), Method: PREINCUBATION inactive; negative | Test System: AMES SALMONELLA TYPHIMURIUM, Strain/Indicator: TA98, Metabolic Activation: HAMSTER, LIVER, S-9, AROCLOR 1254 (10 OR 30%), Method: PREINCUBATION inactive; negative | [1] inactive; negative | Test System: AMES SALMONELLA TYPHIMURIUM, Strain/Indicator: TA98, Metabolic Activation: RAT, LIVER, S-9, AROCLOR 1254 (10 OR 30%), Method: PREINCUBATION inactive; negative | Test System: AMES SALMONELLA TYPHIMURIUM, Strain/Indicator: TA98, Metabolic Activation: RAT, LIVER, S-9, KC 500, Method: PREINCUBATION inactive; negative | Test System: AMES SALMONELLA TYPHIMURIUM, Strain/Indicator: TA100, Metabolic Activation: HAMSTER, LIVER, S-9, AROCLOR 1254 (10 OR 30%), Method: PREINCUBATION inactive; negative | [2] inactive; negative | Test System: AMES SALMONELLA TYPHIMURIUM, Strain/Indicator: TA100, Metabolic Activation: RAT, LIVER, S-9, AROCLOR 1254 (10 OR 30%), Method: PREINCUBATION inactive; negative | Test System: AMES SALMONELLA TYPHIMURIUM, Strain/Indicator: TA100, Metabolic Activation: RAT, LIVER, S-9, KC 500, Method: PREINCUBATION inactive; negative | Test System: AMES SALMONELLA TYPHIMURIUM, Strain/Indicator: TA1535, Metabolic Activation: HAMSTER, LIVER, S-9, AROCLOR 1254 (10 OR 30%), Method: PREINCUBATION inactive; negative | Test System: AMES SALMONELLA TYPHIMURIUM, Strain/Indicator: TA1535, Metabolic Activation: NONE, Method: PREINCUBATION inactive; negative | Test System: AMES SALMONELLA TYPHIMURIUM, Strain/Indicator: TA1535, Metabolic Activation: RAT, LIVER, S-9, AROCLOR 1254 (10 OR 30%), Method: PREINCUBATION inactive; negative | Test System: AMES SALMONELLA TYPHIMURIUM, Strain/Indicator: TA1535, Metabolic Activation: RAT, LIVER, S-9, KC 500, Method: PREINCUBATION inactive; negative | Test System: AMES SALMONELLA TYPHIMURIUM, Strain/Indicator: TA1537, Metabolic Activation: HAMSTER, LIVER, S-9, AROCLOR 1254 (30%), Method: PREINCUBATION inactive; negative | Test System: AMES SALMONELLA TYPHIMURIUM, Strain/Indicator: TA1537, Metabolic Activation: NONE, Method: PREINCUBATION inactive; negative | Test System: AMES SALMONELLA TYPHIMURIUM, Strain/Indicator: TA1537, Metabolic Activation: RAT, LIVER, S-9, AROCLOR 1254 (30%), Method: PREINCUBATION inactive; negative | Test System: AMES SALMONELLA TYPHIMURIUM, Strain/Indicator: TA1537, Metabolic Activation: RAT, LIVER, S-9, KC 500, Method: PREINCUBATION inactive; negative | Test System: AMES SALMONELLA TYPHIMURIUM, Strain/Indicator: TA1538, Metabolic Activation: NONE, Method: PREINCUBATION inactive; negative | Test System: AMES SALMONELLA TYPHIMURIUM, Strain/Indicator: TA1538, Metabolic Activation: RAT, LIVER, S-9, KC 500, Method: PREINCUBATION inactive; negative | Test System: Ames Salmonella typhimurium, Strain/Indicator: TA98, Metabolic Activation: None, Method: Preincubation inactive; negative | Test System: Ames Salmonella typhimurium, Strain/Indicator: TA98, Metabolic Activation: Rat, Liver, S-9, Phenobarbital and 5,6-benzoflavone, Method: Preincubation inactive; negative | Test System: Ames Salmonella typhimurium, Strain/Indicator: TA100, Metabolic Activation: None, Method: Preincubation inactive; negative | Test System: Ames Salmonella typhimurium, Strain/Indicator: TA100, Metabolic Activation: Rat, Liver, S-9, Phenobarbital and 5,6-benzoflavone, Method: Preincubation inactive; negative | Test System: Ames Salmonella typhimurium, Strain/Indicator: TA1535, Metabolic Activation: None, Method: Preincubation inactive; negative | Test System: Ames Salmonella typhimurium, Strain/Indicator: TA1535, Metabolic Activation: Rat, Liver, S-9, Phenobarbital and 5,6-benzoflavone, Method: Preincubation inactive; negative | Test System: Ames Salmonella typhimurium, Strain/Indicator: TA1537, Metabolic Activation: None, Method: Preincubation inactive; negative | Test System: Ames Salmonella typhimurium, Strain/Indicator: TA1537, Metabolic Activation: Rat, Liver, S-9, Phenobarbital and 5,6-benzoflavone, Method: Preincubation inactive; negative | Test System: CHINESE HAMSTER V-79, Strain/Indicator: V-79 (HPRT)/6-THIOGUANINE, Metabolic Activation: NONE, Method: STANDARD PLATE inactive; negative | Test System: CHINESE HAMSTER V-79, Strain/Indicator: V-79 (HPRT)/6-THIOGUANINE, Metabolic Activation: RAT LIVER S-9, Method: STANDARD PLATE inactive; negative | Test System: E. COLI, Strain/Indicator: WP2 UVRA, Metabolic Activation: NONE, Method: PREINCUBATION inactive; negative | Test System: E. COLI, Strain/Indicator: WP2 UVRA, Metabolic Activation: RAT, LIVER, S-9, KC 500, Method: PREINCUBATION inactive; negative | Test System: E. coli, Strain/Indicator: WP2uvrA/pKM101, Metabolic Activation: None, Method: Preincubation inactive; negative | Test System: E. coli, Strain/Indicator: WP2uvrA/pKM101, Metabolic Activation: Rat, Liver, S-9, Phenobarbital and 5,6-benzoflavone, Method: Preincubation inactive; negative

CCN(CC)S(=O)(=O)c1ccc(N)cc1
inactive: [1] inactive; negative | Test System: AMES SALMONELLA TYPHIMURIUM, Strain/Indicator: TA98, Metabolic Activation: RAT, LIVER, S-9, AROCLOR 1254, Method: PREINCUBATION inactive; negative | [2] inactive; negative | Test System: AMES SALMONELLA TYPHIMURIUM, Strain/Indicator: TA100, Metabolic Activation: RAT, LIVER, S-9, AROCLOR 1254, Method: PREINCUBATION inactive; negative
